Experimental findings from patent publication US11000033B2, “Ketone or oxime compound, and herbicide” (NISSAN CHEMICAL CORPORATION, priority 2014, dated 2021) are described below.

Common to all, as to assay type: in vivo
The test system of data set [1] is rapeseed. In words: Test Example 5: effect on crop by foliage application, plastic box (symbol g). Conditions: 320 g/ha, 3 weeks after application. The gist of the method: (§1)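 Seeds were sown in spots in sterilized diluvial soil held in a plastic box 21 cm × 13 cm × 7 cm deep, covered with about 1.5 cm of soil, and grown in a greenhouse at 25° C. to 30° C.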
For data set [2], the system named is Alopecurus myosuroides. In words: Test Example 4: herbicidal effect by soil treatment (symbol J). The conditions noted are these: application herbicide amount 320 g/ha. The gist of the method: (§2)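 Seeds were sown in sterilized diluvial soil, covered with about 1.5 cm of soil, and the soil surface was sprayed with a water-diluted emulsion of the compound at a predetermined rate. Plants grew in a greenhouse at 25° C. to 30° C.; effects were scored visually 3 weeks after application.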

The test system of a further data set is Amaranthus retroflexus. In words: Test Example 5: herbicidal effect by foliage application, plastic box (symbol N). Conditions: 320 g/ha, 3 weeks after application. The gist of the method:
(§3)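 Greenhouse foliar test: seedlings at 14 days, grown 25° C. to 30° C. in sterilized diluvial soil; compound applied as an aqueous dilution of an emulsion; response read 3 weeks after spraying.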

In the next data set the test system is beet. Kind of data set: Test Example 5: effect on crop by foliage application, plastic box (symbol f). Conditions: 320 g/ha, 3 weeks after application. An outline of the steps:
as §1

The subject of a further data set is wheat. Kind of data set: Test Example 4: effect on crop by soil treatment (symbol e). Conditions: application herbicide amount 320 g/ha. An outline of the steps: (§4)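 Soil-treatment setup: crop and weed seeds were spot-sown into sterilized diluvial soil, then buried beneath approximately 1.5 cm of it, and the boxes were housed in a 25–30° C. greenhouse.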
Data set [3] deals with Echinochloa oryzacola Vasing. Kind of data set: Test Example 1: herbicidal activity, application before weed generation in submerged conditions (symbol A). The conditions noted are these: application herbicide amount 320 g/ha. An outline of the steps:
(§5)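 In a flooded pot test with alluvial soil, the emulsion-formulated compound was diluted with water to a predetermined amount and applied to the floodwater immediately on the sowing day. Pots were held in a greenhouse at 25–30 °C for 3 weeks before each weed was rated.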

Data set [4] deals with Galium spurium. In words: Test Example 4: herbicidal effect by soil treatment (symbol Q). The conditions noted are these: application herbicide amount 320 g/ha. An outline of the steps: as §2
Data set [5] has as its system Alopecurus myosuroides. Kind of data set: Test Example 5: herbicidal effect by foliage application, plastic box (symbol J). Conditions: 320 g/ha, 3 weeks after application. The gist of the method:
as §3

The subject of the next data set is Setaria viridis. In words: Test Example 4: herbicidal effect by soil treatment (symbol G). Conditions: application herbicide amount 320 g/ha. An outline of the steps: as §2
Data set [6] has as its system Echinochloa crus-galli var. crus-galli. Kind of data set: Test Example 3: herbicidal effect by foliage application, Wagner pot (symbol H). Conditions: application herbicide amount 320 g/ha. The gist of the method:
(§6)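 Weeds and rice were sown in alluvial soil under 0.1–0.5 cm of standing water and grown for 14 days in a 25–30 °C greenhouse. An emulsion of the compound, diluted in water to a set dose, was sprayed evenly onto the foliage. Effect was scored against fixed criteria 3 weeks after treatment.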

The next data set has as its system Scirpus juncoides. Kind of data set: Test Example 1: herbicidal activity, application before weed generation in submerged conditions (symbol B). The conditions noted are these: application herbicide amount 320 g/ha. The gist of the method:
as §5

For another data set, the system named is Cyperus difformis. Kind of data set: Test Example 3: herbicidal effect by foliage application, Wagner pot (symbol E). Conditions: application herbicide amount 320 g/ha. An outline of the steps:
as §6

Data set [7] concerns Galium spurium. Kind of data set: Test Example 5: herbicidal effect by foliage application, plastic box (symbol Q). The conditions noted are these: 320 g/ha, 3 weeks after application. An outline of the steps: as §3
In data set [8] the test system is Apera spica-venti. Kind of data set: Test Example 5: herbicidal effect by foliage application, plastic box (symbol L). Conditions: 320 g/ha, 3 weeks after application. The gist of the method: as §3
In data set [9] the test system is rapeseed. In words: Test Example 4: effect on crop by soil treatment (symbol g). Conditions: application herbicide amount 320 g/ha. The gist of the method:
as §4

The test system of the next data set is Stellaria media. In words: Test Example 5: herbicidal effect by foliage application, plastic box (symbol P). Conditions: 320 g/ha, 3 weeks after application. An outline of the steps:
as §3

A further data set relates to Digitaria ciliaris. Kind of data set: Test Example 5: herbicidal effect by foliage application, plastic box (symbol F). The conditions noted are these: 320 g/ha, 3 weeks after application. An outline of the steps:
as §3

Data set [10] has as its system Apera spica-venti. In words: Test Example 4: herbicidal effect by soil treatment (symbol L). Conditions: application herbicide amount 320 g/ha. The gist of the method: as §2
The test system of a further data set is Abutilon theophrasti. Kind of data set: Test Example 5: herbicidal effect by foliage application, plastic box (symbol M). The conditions noted are these: 320 g/ha, 3 weeks after application. The gist of the method: as §3

Regarding `CON=C(C)CC1CC(OC(=O)COc2ccccc2)=C(c2c(C)cc(-c3ccccc3)cc2OC)C1=O` (stereo not drawn) [6-100], the “g: rapeseed, effect on crop (criteria of Test Example 1)” value in the data set with rapeseed [1] is recorded as 5 (Herbicidal ratio of 90% or more (almost completely withered)). Further, the “Herbicidal effect grade, J: Alopecurus myosuroides” value in the data set with Alopecurus myosuroides [2] is recorded as 5 (Herbicidal ratio of 90% or more (almost completely withered)). In the data set with Amaranthus retroflexus, the “N: Amaranthus retroflexus, herbicidal effect (criteria of Test Example 1)” value (shortened to “N: Amaranthus retroflexus”) was 4 (Herbicidal ratio of 70% or higher and lower than 90%). The “f: beet, effect on crop (criteria of Test Example 1)” value (shortened to “f: beet, effect on crop”) in the data set with beet is 0 (Herbicidal ratio of 5% or lower (almost no effect)). The “Effect on crop grade, e: wheat” value in the data set with wheat is 3 (Herbicidal ratio of 40% or higher and lower than 70%). Besides, the “Herbicidal effect grade, A: Echinochloa oryzacola Vasing.” value in data set [3] is on record as 5 (Herbicidal ratio of 90% or more (almost completely withered)). Besides, in the data set on Galium spurium [4], the “Herbicidal effect grade, Q: Galium spurium” value is 1 (Herbicidal ratio of 5% or higher and lower than 20%). The “J: Alopecurus myosuroides, herbicidal effect (criteria of Test Example 1)” value with Alopecurus myosuroides [5] was 5 (Herbicidal ratio of 90% or more (almost completely withered)). Moreover, in the data set on Setaria viridis, the “Herbicidal effect grade, G: Setaria viridis” value is recorded as 5 (Herbicidal ratio of 90% or more (almost completely withered)). Moreover, the “herbicidal effect on H (Echinochloa crus-galli var. crus-galli), grade 0-5” value (shortened to “herbicidal effect on H”) in data set [6] is recorded as 5 (Herbicidal ratio of 90% or more (almost completely withered)). In addition, the “Herbicidal effect grade, B: Scirpus juncoides” value (“Herbicidal effect grade, B” below) in the data set with Scirpus juncoides is recorded as 5 (Herbicidal ratio of 90% or more (almost completely withered)). Moreover, the “herbicidal effect on E, grade 0-5” value in the data set on Cyperus difformis was 5 (Herbicidal ratio of 90% or more (almost completely withered)). Also, in the data set with Galium spurium [7], the “Q: Galium spurium, herbicidal effect (criteria of Test Example 1)” value was 4 (Herbicidal ratio of 70% or higher and lower than 90%). Moreover, in the data set with Apera spica-venti [8], the “L: Apera spica-venti, herbicidal effect (criteria of Test Example 1)” value is given as 5 (Herbicidal ratio of 90% or more (almost completely withered)). The “Effect on crop grade, g: rapeseed” value in the data set with rapeseed [9] is 5 (Herbicidal ratio of 90% or more (almost completely withered)). Moreover, the “P: Stellaria media, herbicidal effect (criteria of Test Example 1)” value (“P: Stellaria media, herbicidal effect” below) in the data set on Stellaria media is 3 (Herbicidal ratio of 40% or higher and lower than 70%). For the same compound, the “F: Digitaria ciliaris, herbicidal effect (criteria of Test Example 1)” value (shortened to “F: Digitaria ciliaris, herbicidal effect”) with Digitaria ciliaris is on record as 5 (Herbicidal ratio of 90% or more (almost completely withered)). Also, the “Herbicidal effect grade, L: Apera spica-venti” value with Apera spica-venti [10] was 5 (Herbicidal ratio of 90% or more (almost completely withered)). For the same compound, the “M: Abutilon theophrasti, herbicidal effect (criteria of Test Example 1)” value (“M: Abutilon theophrasti” below) in the data set on Abutilon theophrasti is 3 (Herbicidal ratio of 40% or higher and lower than 70%).

On to `CCc1cc(Br)cc(C)c1C1=C(O)CC(CC(C)=O)C1=O` (stereo not drawn) [7-003], for which the “g: rapeseed, effect on crop (criteria of Test Example 1)” value in the data set with rapeseed [1] is 0 (Herbicidal ratio of 5% or lower (almost no effect)). In the data set with Alopecurus myosuroides [2], the “Herbicidal effect grade, J: Alopecurus myosuroides” value is listed as 5 (Herbicidal ratio of 90% or more (almost completely withered)). For the same compound, the “N: Amaranthus retroflexus” value with Amaranthus retroflexus is on record as 0 (Herbicidal ratio of 5% or lower (almost no effect)). The “f: beet, effect on crop” value in the data set on beet was 0 (Herbicidal ratio of 5% or lower (almost no effect)). Also, the “Effect on crop grade, e: wheat” value with wheat is on record as 0 (Herbicidal ratio of 5% or lower (almost no effect)). Besides, the “Herbicidal effect grade, A: Echinochloa oryzacola Vasing.” value in data set [3] was 5 (Herbicidal ratio of 90% or more (almost completely withered)). In addition, in the data set with Galium spurium [4], the “Herbicidal effect grade, Q: Galium spurium” value is on record as 0 (Herbicidal ratio of 5% or lower (almost no effect)). Further, the “J: Alopecurus myosuroides, herbicidal effect (criteria of Test Example 1)” value in the data set on Alopecurus myosuroides [5] is listed as 5 (Herbicidal ratio of 90% or more (almost completely withered)). Besides, the “Herbicidal effect grade, G: Setaria viridis” value in the data set with Setaria viridis is on record as 5 (Herbicidal ratio of 90% or more (almost completely withered)). The “herbicidal effect on H” value in data set [6] was 5 (Herbicidal ratio of 90% or more (almost completely withered)). Further, the “Herbicidal effect grade, B” value with Scirpus juncoides is given as 0 (Herbicidal ratio of 5% or lower (almost no effect)). Besides, in the data set with Cyperus difformis, the “herbicidal effect on E, grade 0-5” value is on record as 0 (Herbicidal ratio of 5% or lower (almost no effect)). For the same compound, in the data set on Galium spurium [7], the “Q: Galium spurium, herbicidal effect (criteria of Test Example 1)” value is 0 (Herbicidal ratio of 5% or lower (almost no effect)). In addition, the “L: Apera spica-venti, herbicidal effect (criteria of Test Example 1)” value in the data set with Apera spica-venti [8] was 5 (Herbicidal ratio of 90% or more (almost completely withered)). Moreover, in the data set on rapeseed [9], the “Effect on crop grade, g: rapeseed” value is listed as 0 (Herbicidal ratio of 5% or lower (almost no effect)). Moreover, in the data set on Stellaria media, the “P: Stellaria media, herbicidal effect” value is 0 (Herbicidal ratio of 5% or lower (almost no effect)). Besides, the “F: Digitaria ciliaris, herbicidal effect” value in the data set on Digitaria ciliaris is given as 5 (Herbicidal ratio of 90% or more (almost completely withered)). Besides, the “Herbicidal effect grade, L: Apera spica-venti” value in the data set on Apera spica-venti [10] is on record as 5 (Herbicidal ratio of 90% or more (almost completely withered)). Also, the “M: Abutilon theophrasti” value in the data set with Abutilon theophrasti is reported as 0 (Herbicidal ratio of 5% or lower (almost no effect)).

As for `CON=C(C)CC1CC(O)=C(c2c(C)cc(-n3cccn3)cc2C)C1=O` (stereo not drawn) [6-073], the “g: rapeseed, effect on crop (criteria of Test Example 1)” value in the data set on rapeseed [1] is 4 (Herbicidal ratio of 70% or higher and lower than 90%). Further, the “J: Alopecurus myosuroides, herbicidal effect grade” value with Alopecurus myosuroides [2] is 2 (Herbicidal ratio of 20% or higher and lower than 40%). Also, the “N: Amaranthus retroflexus” value with Amaranthus retroflexus is on record as 0 (Herbicidal ratio of 5% or lower (almost no effect)). The “f: beet, effect on crop” value in the data set with beet was 0 (Herbicidal ratio of 5% or lower (almost no effect)). Besides, the “e: wheat, effect on crop grade” value in the data set with wheat was 2 (Herbicidal ratio of 20% or higher and lower than 40%). Moreover, the “Herbicidal effect grade, A: Echinochloa oryzacola Vasing.” value in data set [3] is 4 (Herbicidal ratio of 70% or higher and lower than 90%). Moreover, in the data set with Galium spurium [4], the “Q: Galium spurium, herbicidal effect grade” value is listed as 0 (Herbicidal ratio of 5% or lower (almost no effect)). Besides, the “J: Alopecurus myosuroides, herbicidal effect (criteria of Test Example 1)” value with Alopecurus myosuroides [5] was 5 (Herbicidal ratio of 90% or more (almost completely withered)). Moreover, the “G: Setaria viridis, herbicidal effect grade” value with Setaria viridis is reported as 5 (Herbicidal ratio of 90% or more (almost completely withered)). In addition, the “herbicidal effect on H” value in data set [6] is given as 5 (Herbicidal ratio of 90% or more (almost completely withered)). For the same compound, in the data set with Scirpus juncoides, the “Herbicidal effect grade, B” value was 1 (Herbicidal ratio of 5% or higher and lower than 20%). In the data set with Cyperus difformis, the “herbicidal effect on E, grade 0-5” value is 5 (Herbicidal ratio of 90% or more (almost completely withered)). Moreover, the “Q: Galium spurium, herbicidal effect (criteria of Test Example 1)” value with Galium spurium [7] was 3 (Herbicidal ratio of 40% or higher and lower than 70%). Moreover, the “L: Apera spica-venti, herbicidal effect (criteria of Test Example 1)” value in the data set on Apera spica-venti [8] was 3 (Herbicidal ratio of 40% or higher and lower than 70%). In addition, the “g: rapeseed, effect on crop grade” value in the data set with rapeseed [9] is 3 (Herbicidal ratio of 40% or higher and lower than 70%). For the same compound, the “P: Stellaria media, herbicidal effect” value in the data set with Stellaria media is 2 (Herbicidal ratio of 20% or higher and lower than 40%). Further, in the data set on Digitaria ciliaris, the “F: Digitaria ciliaris, herbicidal effect” value is listed as 5 (Herbicidal ratio of 90% or more (almost completely withered)). In the data set with Apera spica-venti [10], the “L: Apera spica-venti, herbicidal effect grade” value is 0 (Herbicidal ratio of 5% or lower (almost no effect)). For the same compound, the “M: Abutilon theophrasti” value in the data set with Abutilon theophrasti is recorded as 0 (Herbicidal ratio of 5% or lower (almost no effect)).
